# What was measured:
# [1] = tested on: Wheat Leaf-spot (Septoria tritici or Mycosphaerella graminicola); assay: Open field trial on wheat, wheat leaf-spot, natural contamination; type: in vivo; details: 30 days after application 2, BBCH73
# Protocol: (§1) They are intended to give an illustration of the efficacy of the composition according to the invention on several cereal diseases, in particular a composition combining compound (A), having as chemical name N-ethyl-N-methyl-N′-[4-(chloro-3-trifluoromethylphenoxy)-2,5-xylyl]formamidine, with a fungicide compound of the triazole type, namely prothioconazole. The trials on cereals were carried out in an open field.
# (§2) The objective of these field trials is therefore to test the efficacy of compounds (A), alone at 100 g/ha; 125 g/ha and 150 g/ha in combination with prothioconazole at 150 g a.i./ha; representing a class of fungicide compounds. Powdery mildew (Erysiphe graminis or blumeria graminis) and Septoria diseases (Mycosphaerella graminicola or Septoria tritici) are the principal diseases treated.
# (§3) The products tested are therefore • N-ethyl-N-methyl-N′-[4-(chloro-3-trifluorométhylphénoxy)-2,5-xylyl]-formamidine as compound (A) at 100 g/ha; 125 g/ha and 150 g/ha as an EC type formulation at 150 g/l; • prothioconazole as compound (B) at 150 g/ha as a formulation at 250 g/l; • compound (A) and prothioconazole combination at 100+150 g/ha as a fresh preparation; • compound (A) and prothioconazole combination at 125+150 g/ha as a fresh preparation; • compound (A) and prothioconazole combination at 150+150 g/ha as a fresh preparation; • the reference product is a mixture of epoxyconazole and pyraclostrobin (Opera® 1,51/ha recommended on Septoria tritici).
# (§4) Each trial comprises 3 repeats.
# (§5) Untreated control plots are included in the experimental design in order to measure the severity of the diseases.
# The trials were conducted under natural contamination conditions. The equipment for application of the different active ingredients is a constant compressed air pressure back sprayer. The spray nozzles have slits.
# The efficacy results were obtained from controls carried out in the field by overall evaluation of the percentage infestation.
# The results were measured 30 days after the second application and are presented in table 3; for Septoria tritici, assessment 30 days after application 2 at stage BBCH73 by observations of Flag leaf-Flag-1-Flag-2.
# [2] = tested on: Wheat Powdery Mildew (Erysiphe graminis or blumeria graminis); assay: Open field trial on wheat, wheat powdery mildew, natural contamination; type: in vivo; details: 20 days after application 2, BBCH73
# Protocol: as §1, §2, §3, §4, §5
# The trials were conducted under natural contamination conditions. The equipment for application of the different active ingredients is a constant compressed air pressure back sprayer. The spray nozzles have slits. […]
# The results were measured 20 days after the second application of the products onto wheat and are presented in table 2; for Erysiphe graminis, assessment 20 days after application 2 at stage BBCH73 by observations of Flag leaf-Flag-1-Flag-2.
SMILES,% Efficacy observed (X) ([1]; 150 g ai/Ha) [%],% Efficacy observed (X) ([2]; 150 g ai/Ha) [%],% Efficacy observed (X) ([1]; 100 g ai/Ha) [%],% Efficacy observed (X) ([1]; 125 g ai/Ha) [%],% Efficacy observed (X) ([2]; 125 g ai/Ha) [%]
"OC(Cc1ccccc1Cl)(Cn1nc[nH]c1=S)C1(Cl)CC1 (stereo not shown) [prothioconazole, reference compound]",69,71,–,–,–
CCN(C)C=Nc1cc(C)c(Oc2ccc(Cl)c(C(F)(F)F)c2)cc1C [Compound A],24,14,17,19,16
